The source of these data is the supplement of paper PMC11208160.
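Also: IS621 bridge recombinase in Escherichia coli cells against a fixed T5 target plasmid.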

A short description of the series: recombinant UMI read abundance after kanamycin selection (control-corrected) (log10(CPM+1)); higher = more efficient recombination; extreme values may be limits of the assay; sequences stand for … in AGTGCAGAGAAAATCGGCCAGTTTTCTCTGCCTGCAGTCCGCATGCCGTGGGACCCCTTGGGTTCTAACCTGTTGCCTAGATTTATGCAGCGGACTGCCTTTCTCCCAAAGTGATAAACCGG…AGGTTGGTTTCACT; site = the 11-nt donor. The method in brief: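 Values are reported as log10(CPM+1), obtained by converting sequencing counts to CPM, averaging replicates and scaling by control-derived factors. The counts came from recombinant UMIs amplified by PCR across the donor–target junction. These UMIs came from a pooled Escherichia coli screen of donor and donor-binding-loop pairs for the IS621 bridge recombinase, plated with IPTG (0.07 mM) plus kanamycin or left unselected, in two replicates each.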
As for “CTCTACTCATGGACCGGTTTTCCCGGTAATCCGTATTTGCT (site CTCTACTCTAG)”, the “recombinant UMI read abundance (log10)” value was 2.5.

Consider “CTCTAGCCATGGACCGGTTTTCCCGGTAATCCGTATTTGCC (site CACTAGCCTGG)”, for which the “recombinant UMI read abundance (log10)” value came out at 0.69.

On to “CTCTAGCCATGGACCGGTTTTCCCGGTAATCCGTATTTGCC (site CCCTAGCCTGG)”, for which the “recombinant UMI read abundance (log10)” value was found to be 0.

Turning to “CTCTAGCCATGGACCGGTTTTCCCGGTAATCCGTATTTGCC (site CGCTAGCCTGG)”, the “recombinant UMI read abundance (log10)” value turned out to be 0.

For “CTCTAGCCATGGACCGGTTTTCCCGGTAATCCGTATTTGCC (site CTCTAGCCTGG)”, the “recombinant UMI read abundance (log10)” value is 0.

“CTCTATACATGGACCGGTTTTCCCGGTAATCCGTATTTGAC (site ATCTATACTGT)”: the “recombinant UMI read abundance (log10)” value amounted to 0.

For the sequence “CTCTATACATGGACCGGTTTTCCCGGTAATCCGTATTTGAC (site CTCTATACTGT)”, the “recombinant UMI read abundance (log10)” value was found to be 2.07.

“CTCTATACATGGACCGGTTTTCCCGGTAATCCGTATTTGAC (site GTCTATACTGT)”: the “recombinant UMI read abundance (log10)” value stood at 0.00602.

Take “CTCTATACATGGACCGGTTTTCCCGGTAATCCGTATTTGAC (site TTCTATACTGT)”: the “recombinant UMI read abundance (log10)” value came out at 0.

In the case of “CTCTCATCATGGACCGGTTTTCCCGGTAATCCGTATTTGCT (site CGATCATCTAG)”, the “recombinant UMI read abundance (log10)” value came out at 0.

Turning to “CTCTCATCATGGACCGGTTTTCCCGGTAATCCGTATTTGCT (site CTCTCATCTAG)”, the “recombinant UMI read abundance (log10)” value stood at 2.05.

As to “CTCTCCACATGGACCGGTTTTCCCGGTAATCCGTATTTGTC (site CTCTCCACTGA)”, the “recombinant UMI read abundance (log10)” value came out at 2.77.

With “CTCTCGACATGGACCGGTTTTCCCGGTAATCCGTATTTGAC (site CTCTCGACTGT)”, the “recombinant UMI read abundance (log10)” value came to 1.34.

For “CTCTGCCCATGGACCGGTTTTCCCGGTAATCCGTATTTGAT (site CTCTGCCCTAT)”, the “recombinant UMI read abundance (log10)” value was found to be 0.509.

For the sequence “CTCTGGCCATGGACCGGTTTTCCCGGTAATCCGTATTTGCG (site CTCTGGCCTCG)”, the “recombinant UMI read abundance (log10)” value came out at 0.

In the case of “CTCTTCTCATGGACCGGTTTTCCCGGTAATCCGTATTTGCT (site CTCTTCTCTAG)”, the “recombinant UMI read abundance (log10)” value was determined as 2.6.

As for “CTGAATTCATGGACCGGTTTTCCCGGTAATCCGTATTTGCC (site CTGAATTCTGG)”, the “recombinant UMI read abundance (log10)” value was 1.06.

For “CTGACATCATGGACCGGTTTTCCCGGTAATCCGTATTTGAG (site CTGACATCTCT)”, the “recombinant UMI read abundance (log10)” value was determined as 1.86.

On to “CTGACGACATGGACCGGTTTTCCCGGTAATCCGTATTTGCA (site CTGACGACTTG)”, for which the “recombinant UMI read abundance (log10)” value is 1.71.

Take “CTGATACCATGGACCGGTTTTCCCGGTAATCCGTATTTGTA (site CTGATACCTTA)”: the “recombinant UMI read abundance (log10)” value worked out at 0.00514.

“CTGCAACCATGGACCGGTTTTCCCGGTAATCCGTATTTGCT (site CTGCAACCTAG)”: the “recombinant UMI read abundance (log10)” value stood at 0.209.

Take “CTGCAACCATGGACCGGTTTTCCCGGTAATCCGTATTTGCT (site CTGCCACCTAG)”: the “recombinant UMI read abundance (log10)” value was 0.0268.

“CTGCAACCATGGACCGGTTTTCCCGGTAATCCGTATTTGCT (site CTGCGACCTAG)”: the “recombinant UMI read abundance (log10)” value was 0.00379.

In the case of “CTGCAACCATGGACCGGTTTTCCCGGTAATCCGTATTTGCT (site CTGCTACCTAG)”, the “recombinant UMI read abundance (log10)” value was 0.

For the sequence “CTGCATCCATGGACCGGTTTTCCCGGTAATCCGTATTTGTT (site CGGAATCCTAA)”, the “recombinant UMI read abundance (log10)” value came to 0.00365.

Take “CTGCATCCATGGACCGGTTTTCCCGGTAATCCGTATTTGTT (site CTGCATCCTAA)”: the “recombinant UMI read abundance (log10)” value is 0.855.

Turning to “CTGCGACCATGGACCGGTTTTCCCGGTAATCCGTATTTGCT (site CTGCAACCTAG)”, the “recombinant UMI read abundance (log10)” value was found to be 0.

Take “CTGCGACCATGGACCGGTTTTCCCGGTAATCCGTATTTGCT (site CTGCCACCTAG)”: the “recombinant UMI read abundance (log10)” value came to 0.0046.

As for “CTGCGACCATGGACCGGTTTTCCCGGTAATCCGTATTTGCT (site CTGCGACCTAG)”, the “recombinant UMI read abundance (log10)” value was determined as 0.
